Reference: the supplement of paper PMC10307832

Tests used:
Assay in all cases: relative viability (nuclei count vs DMSO), 5 days (fraction); higher = more cells survive
[1] = compound: CC1=CC(=NN1)NC2=CC(=NC(=N2)/C=C/C3=CC=CC=C3)N4CCN(CC4)C + N=C(N)NC(=N)NCCc1ccccc1 [Phenformin] (partner 250 µM)
Outline: (§1)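 Medians of duplicate plates are given as relative viability. That measure is the nuclei count in treated wells divided by the count in vehicle wells. Counts were taken on 4× images of lung cancer cell lines in 1536-well plates, 5 days after pin-tool dosing the day after seeding with one drug alone or a fixed anchor-drug dose plus five library-drug doses (not always all listed) in √10 steps.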

[2] = compound: CC1=CC(=NN1)NC2=CC(=NC(=N2)/C=C/C3=CC=CC=C3)N4CCN(CC4)C + Nc1nc2[nH]cc(CCc3ccc(C(=O)N[C@@H](CCC(=O)O)C(=O)O)cc3)c2c(=O)[nH]1 [Pemetrexed] (partner 0.2 µM)
Outline: as §1

[3] = compound: CC1=CC(=NN1)NC2=CC(=NC(=N2)/C=C/C3=CC=CC=C3)N4CCN(CC4)C + O=C(CCCCCCC(=O)Nc1ccccc1)NO [Vorinostat] (partner 1 µM)
Outline: as §1

Obatoclax + Palbociclib = compound: COC1=CC(c2cc3ccccc3[nH]2)=N/C1=C\c1[nH]c(C)cc1C [Obatoclax] + CC(=O)c1c(C)c2cnc(Nc3ccc(N4CCNCC4)cn3)nc2n(C2CCCC2)c1=O [Palbociclib] (partner 0.5 µM)
Outline: as §1

Cell Line	relative viability ([1]; first compound 0.08 µM)	relative viability ([1]; first compound 0.253 µM)	relative viability ([1]; first compound 0.8 µM)	relative viability ([1]; first compound 2.53 µM)	relative viability ([1]; first compound 8 µM)	relative viability ([2]; first compound 0.08 µM)	relative viability ([2]; first compound 0.253 µM)	relative viability ([2]; first compound 0.8 µM)	relative viability ([2]; first compound 2.53 µM)	relative viability ([2]; first compound 8 µM)	relative viability ([3]; first compound 0.08 µM)	relative viability ([3]; first compound 0.253 µM)	relative viability ([3]; first compound 0.8 µM)	relative viability ([3]; first compound 2.53 µM)	relative viability ([3]; first compound 8 µM)	relative viability (Obatoclax + Palbociclib; first compound 0.01 µM)	relative viability (Obatoclax + Palbociclib; first compound 0.03162 µM)	relative viability (Obatoclax + Palbociclib; first compound 0.1 µM)	relative viability (Obatoclax + Palbociclib; first compound 0.3162 µM)	relative viability (Obatoclax + Palbociclib; first compound 1 µM)
201T	0.454	0.461	0.415	0.373	0.258	0.31	0.318	0.376	0.327	0.298	1	1.13	0.997	0.879	0.449	0.382	0.363	0.348	0.348	0.357
A549	0.178	0.181	0.195	0.0435	0.025	–	–	–	–	–	–	–	–	–	–	–	–	–	–	–
A-427	0.347	0.21	0.282	0.121	0.0986	1.06	1.1	0.97	0.51	0.202	0.943	0.904	0.822	0.334	0.212	0.54	0.511	0.419	0.517	0.462
ABC-1	0.199	0.192	0.26	0.234	0.187	–	–	–	–	–	1.01	1.19	1.31	0.392	0.225	0.838	0.717	0.595	0.609	0.454
BEN	0.228	0.269	0.259	0.236	0.196	0.723	0.809	0.699	0.476	0.323	0.544	0.53	0.563	0.47	0.334	0.467	0.477	0.429	0.462	0.44
CAL-12T	0.608	0.489	0.442	0.17	0.109	1.09	1.25	1.16	0.56	0.159	0.686	0.573	0.639	0.428	0.126	0.445	0.495	0.426	0.176	0.0895
COR-L23	0.45	0.479	0.414	0.0934	0.0951	0.202	0.203	0.179	0.166	0.105	0.417	0.446	0.195	0.0754	0.087	0.306	0.303	0.228	0.128	0.122
COR-L 105	0.453	0.495	0.469	0.213	0.17	1.23	1.13	0.945	0.351	0.29	0.818	0.762	0.753	0.47	0.262	0.408	0.441	0.375	0.361	0.341
ChaGo-K-1	0.482	0.442	0.434	0.151	0.121	0.259	0.264	0.27	0.227	0.17	0.799	0.8	0.613	0.343	0.186	0.912	0.925	0.91	0.903	0.99
EKVX	0.236	0.21	0.236	0.189	0.109	0.366	0.5	0.674	0.361	0.197	0.702	0.82	0.794	0.571	0.289	0.438	–	0.393	0.388	0.386
EMC-BAC-2	0.511	0.559	0.432	0.228	0.0995	0.439	0.495	0.445	0.465	0.234	0.416	0.428	0.354	0.171	0.0976	0.502	0.494	0.474	0.556	0.432
EPLC-272H	0.315	0.24	0.258	0.147	0.135	0.329	0.363	0.342	0.104	0.136	0.472	0.488	0.401	0.141	0.0816	0.323	0.313	0.477	0.266	0.282
H3255	0.369	0.362	0.684	0.341	0.27	0.526	0.589	0.573	0.555	0.391	0.746	0.834	0.872	0.831	0.525	0.308	0.299	0.278	0.327	0.324
HARA	0.47	0.513	0.343	0.211	0.138	0.234	0.252	0.252	0.165	0.175	0.545	0.689	0.459	0.26	0.0694	0.314	0.224	0.285	0.242	0.216
HCC-15	0.472	0.452	0.434	0.107	0.0823	0.244	0.22	0.225	0.192	0.113	0.861	0.875	0.887	0.526	0.114	0.672	0.728	0.695	0.752	0.609
HCC-44	0.123	0.326	0.215	0.102	0.115	0.642	0.644	0.631	0.622	0.557	1.08	1.13	1.05	0.904	0.36	0.922	0.916	0.967	0.993	0.94
HCC-78	0.647	0.704	0.722	0.381	0.293	0.804	0.91	0.926	0.938	0.874	0.465	0.518	0.461	0.372	0.246	0.438	0.45	0.506	0.479	0.457
HCC-366	0.63	0.7	0.62	0.189	0.0317	0.171	0.189	0.187	0.0462	0.0222	0.38	0.505	0.136	0.0276	0.0214	0.401	0.34	0.311	0.304	0.203

Cell Line	relative viability ([1]; first compound 0.08 µM)	relative viability ([1]; first compound 0.253 µM)	relative viability ([1]; first compound 0.8 µM)	relative viability ([1]; first compound 2.53 µM)	relative viability ([1]; first compound 8 µM)	relative viability ([2]; first compound 0.08 µM)	relative viability ([2]; first compound 0.253 µM)	relative viability ([2]; first compound 0.8 µM)	relative viability ([2]; first compound 2.53 µM)	relative viability ([2]; first compound 8 µM)	relative viability ([3]; first compound 0.08 µM)	relative viability ([3]; first compound 0.253 µM)	relative viability ([3]; first compound 0.8 µM)	relative viability ([3]; first compound 2.53 µM)	relative viability ([3]; first compound 8 µM)	relative viability (Obatoclax + Palbociclib; first compound 0.01 µM)	relative viability (Obatoclax + Palbociclib; first compound 0.03162 µM)	relative viability (Obatoclax + Palbociclib; first compound 0.1 µM)	relative viability (Obatoclax + Palbociclib; first compound 0.3162 µM)	relative viability (Obatoclax + Palbociclib; first compound 1 µM)
HCC-827	0.39	0.402	0.435	0.401	0.216	0.159	0.241	0.262	0.266	0.171	0.282	0.908	0.823	0.773	0.215	0.475	0.436	0.531	0.407	0.482
HOP-62	0.713	0.758	0.688	0.459	0.26	0.364	0.328	0.288	0.294	0.182	0.603	0.566	0.637	0.387	0.129	0.425	0.393	0.415	0.499	0.455
IA-LM	–	–	–	–	–	–	–	–	–	–	1.02	1.12	0.874	0.887	0.332	–	–	–	–	–
LC-2-ad	0.554	0.571	0.501	0.251	0.172	0.263	0.266	0.269	0.187	0.143	0.709	0.751	0.467	0.186	0.15	0.428	0.46	0.489	0.464	0.438
LCLC-97TM1	0.448	0.468	0.41	0.236	0.154	0.186	0.226	0.161	0.164	0.0709	0.625	0.787	0.74	0.19	0.0813	0.193	0.223	0.204	0.199	0.25
LCLC-103H	0.344	0.34	0.333	0.326	0.232	0.476	0.465	0.458	0.516	0.359	0.824	0.69	0.779	0.582	0.294	0.432	0.356	0.472	0.517	0.446
LK-2	0.313	0.327	0.309	0.111	0.117	0.199	0.288	0.306	0.217	0.0825	0.254	0.155	0.283	0.223	0.126	0.661	0.728	0.764	–	0.825
LOU-NH91	0.7	0.768	0.78	0.509	0.365	0.383	0.389	0.391	0.394	0.361	0.954	0.935	0.941	0.594	0.41	0.497	0.523	0.429	0.422	0.464
LU99A	0.748	0.707	0.716	0.411	0.153	0.187	0.2	0.199	0.202	0.173	0.481	0.434	0.425	0.182	0.0957	0.426	0.377	–	0.402	0.4
LXF-289	0.478	0.464	0.496	0.265	0.114	0.872	0.874	0.895	0.615	0.444	0.742	0.759	0.603	0.252	0.113	0.588	0.609	0.588	0.629	0.613
NCI-H23	0.793	0.887	0.711	0.247	0.204	0.508	0.768	0.542	0.215	0.118	0.485	0.756	0.457	0.141	0.0948	0.49	0.548	0.496	0.475	0.39
NCI-H322M	0.759	0.852	0.688	0.31	0.218	0.615	0.622	0.616	0.308	0.273	0.881	0.948	0.891	0.31	0.303	0.491	0.485	0.58	0.501	0.452
NCI-H596	0.767	0.807	0.627	0.608	0.259	0.468	0.5	0.456	0.408	0.228	0.557	0.633	0.577	0.42	0.139	–	–	–	–	–
NCI-H727	0.398	–	0.41	0.295	0.17	–	–	–	–	–	0.86	0.882	1.32	1.02	0.523	0.608	0.618	0.779	0.62	0.646
NCI-H1563	0.726	0.659	0.664	0.592	0.43	0.76	0.861	0.853	0.592	0.396	–	–	–	–	–	–	–	–	–	–
NCI-H1623	0.6	0.615	0.583	0.563	0.343	–	–	–	–	–	–	–	–	–	–	–	–	–	–	–
NCI-H1648	–	–	–	–	–	0.689	0.803	0.836	0.745	0.47	0.437	0.488	0.666	0.346	0.203	0.303	0.258	0.28	0.275	0.246
NCI-H1792	0.273	0.267	0.166	0.0557	0.0429	0.624	0.888	0.722	0.0892	0.0324	–	–	–	–	–	0.626	0.609	–	0.625	0.705
